Among the data in patent US8183383B2, “Protein tyrosine phosphatase 1B inhibitor, preparation methods and uses thereof” (Shanghai Institute of Materia Medica, Chinese Academy of …, priority 2007, dated 2012) are IC50 values, retold here.

Bounds are passed on as bounds.

One may read the IC50 as the concentration needed to halve the response being measured.

The assay concerns the target T1, hPTP1B (Homo sapiens, UniProt P18031).
T1 construct: The catalytic structural domain of hPTP1B was expressed in E-coli system by a molecular biology protocol; made in house; host or cells: E. coli
T1 sequence (P18031 3-277 limits assumed): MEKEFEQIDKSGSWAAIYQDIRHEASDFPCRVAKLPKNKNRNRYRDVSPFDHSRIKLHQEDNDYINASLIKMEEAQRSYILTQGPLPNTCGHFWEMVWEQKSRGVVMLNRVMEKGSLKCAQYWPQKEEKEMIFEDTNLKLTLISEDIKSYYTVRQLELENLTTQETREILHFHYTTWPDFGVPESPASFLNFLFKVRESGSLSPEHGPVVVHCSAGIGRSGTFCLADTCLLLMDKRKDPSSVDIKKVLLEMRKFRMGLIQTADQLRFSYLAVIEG
The assay is described as follows: PTP1B inhibition test (pNPP hydrolysis, absorption at 410 nm). The assay is classed as biochemical. As to conditions: recombinant hPTP1B catalytic domain 40 nM, 2 mM pNPP, pH 7.0, 2% DMSO; read-out: IC50(μM), inhibitory activity of the test compounds against PTP1B. The source says:
1) Test principle: The catalytic structural domain of hPTP1B was expressed in E-coli system by a molecular biology protocol. The purified hPTP1B recombinant protein can hydrolyze the phosphoester linkage of the pNPP substrate to obtain a product which has a strong light absorption at 410 nm. Therefore, the variation of the enzyme activity and the inhibitory activity of a compound against the enzyme can be observed by directly monitoring the changes in the light absorption at 410 nm. A typical activity assay system is as follows: 50 mM Mops, PH 7.0, 1 mM EDTA, 2 mM DTT, 2 mM PNPP, 2% DMSO, 40 nM hPTP1B.
2) Measuring Index: The light absorption was dynamically measured at 410 nm for 3 min. The slope of the first-order reaction of the dynamic curve thereof was considered as the activity index of the enzymes.
3) Measurement: • 1. 1 mg sample was dissolved in 200 μL DMSO. To each wall of the A2-H11 of a 96-wells polypropylene plate, 20 μL of the solution was added, followed by addition of 80 μL DMSO. The plate was used as mother plate. • 2. To each corresponding wall of a 96-wells polypropylene plate, 2 μL of sample was added with a Biomek 2000 automation workstation. The plate was used as daughter plate for screening. • 3. To each wall of A1-D1 and E12-H12, 2 μL, DMSO was added. These walls were regarded as 100% of enzyme activity for control. • 4. To each wall of A12-D12 and E1-H1, 2 μL positive control with different concentrations (four concentrations prepared by double-fold dilution from […]) was added respectively. • 5. To each wall of A1-H12, 88 μL Assay mix was added respectively. • 6. To each wall of A1-H12, 10 μL hPTP1B was added respectively. • 7. The light absorption was measured at 410 nm for 3 min on a SpectraMAX 340 spectrometer. • 8. Exporting the output into a TXT file, and opening the file with Excel. The average of the Vmax values of A1-D1 and E12-H12 was considered as 100% of enzyme activity.
4) Results: The screening results were the % inhibitory rate against the enzyme when the compound concentration was 20 μg/mL. 1050 value was calculated according to a conventional screening when the inhibitory rate exceeded 50%. The […] value of the positive control, 4-[4-(4-oxalyl-phenoxymethyl)-benzyloxy]-phenyl-oxo-acetic acid, is 5.4 μM [Christopher T. Seto, et al. J. Med. Chem., 2002, 45, 3946-3952].
Take `CCOC(=O)/C(C)=C\C(C)=C\c1csc([C@H](Cc2ccc(OCc3ccccc3)cc2)NC(=O)C(=O)C2CCC2)n1` [WY572]: the IC50 amounted to 8.52 µM. For the compound `CCOC(=O)/C(C)=C\C(C)=C\c1csc([C@H](Cc2ccc(OCc3cccc(F)c3)cc2)NC(=O)C2CCCCC2)n1` [WY590h3], the IC50 was determined as 24.1 µM. Regarding `CCOC(=O)/C(C)=C\C(C)=C\c1csc([C@H](Cc2ccc(OCc3ccccc3)cc2)NC(=O)N[C@@H](Cc2ccc(OCc3ccccc3)cc2)c2nc(/C=C(C)/C=C(/C)C(=O)OCC)cs2)n1` [WY951], the IC50 is 6.29 µM. `CCOC(=O)/C(C)=C\C(C)=C\c1csc([C@H](Cc2ccc(OCC(=O)O)cc2)NC(=O)C2CCCCC2)n1` [WY540a]: the 50% inhibitory concentration (IC50) is greater than 40 µM. In the case of `CCOC(=O)/C(C)=C\C(C)=C\c1csc([C@H](Cc2ccc(OCc3ccccc3)cc2)NC(=O)COCc2ccccc2)n1` [WY610s], the IC50 worked out at 9.42 µM. As for `C/C(=C/C(C)=C/c1csc([C@H](Cc2ccc(OCc3ccccc3)cc2)NC(=O)CC2CCCCC2)n1)C(=O)O` [WY558a], the 50% inhibitory concentration (IC50) stood at 9.32 µM.

As for `CCOC(=O)/C(C)=C\C(C)=C\c1nc([C@H](Cc2ccc(OCc3ccccc3)cc2)NC(=O)C2CCCCC2)sc1C` [WY586z], the IC50 came out at 4.86 µM. The same measure for `CCOC(=O)/C(C)=C\C(C)=C\c1csc([C@H](Cc2ccc(OCc3ccccc3)cc2)NC(=O)N2CCC(C(=O)O)CC2)n1` [WY617a]: 6.47 µM; for `CCOC(=O)/C(C)=C\C(C)=C\c1csc([C@H](Cc2ccc(-c3ccccc3)cc2)NC(=O)C2CCCCC2)n1` [WY542h]: greater than 40 µM. The same measure for `CCOC(=O)/C(C)=C\C(C)=C\c1csc([C@H](Cc2ccc(OCc3ccccc3)cc2)NC(=O)CC(C)(C)C)n1` [WY560t]: 20.2 µM; for `CCOC(=O)/C(C)=C\C(C)=C\c1csc([C@H](Cc2ccc(OCc3ccccc3)cc2)NC(=O)C(=O)C2CCCC2)n1` [WY586]: 11 µM. Regarding `C=CCOc1ccc(C[C@H](NC(=O)C2CCCCC2)c2nc(/C=C(C)/C=C(/C)C(=O)OCC)cs2)cc1` [WY522h], the concentration for half-maximal inhibition (IC50) turned out to be 34.4 µM. `CCOC(=O)/C(C)=C\C(C)=C\c1csc([C@H](Cc2ccc(OCc3ccc(C#N)cc3)cc2)NC(=O)C2CCCCC2)n1` [WY597h]: the IC50 was greater than 35 µM. For `CCOC(=O)/C(C)=C\C(C)=C\c1csc([C@H](Cc2ccc(OCc3ccccc3F)cc2)NC(=O)C2CCCCC2)n1` [WY592h2], the half-inhibitory concentration (IC50) was determined as 31.8 µM. For `C/C(=C/C(C)=C/c1nc([C@H](Cc2ccc(OCc3ccccc3)cc2)NC(=O)C2CCCCC2)sc1-c1ccccc1)C(=O)O` [WY620a], the IC50 is 4 µM. With `CCOC(=O)/C(C)=C\C(C)=C\c1nc([C@H](Cc2ccc(OCc3ccccc3)cc2)NC(=O)C2CCCCC2)sc1-c1ccccc1` [WY648z] the figure was 3.3 µM; with `CCOC(=O)/C(C)=C\C(C)=C\c1csc([C@H](Cc2ccc(OCCO)cc2)NC(=O)C2CCCCC2)n1` [WY526h], greater than 40 µM; with `CCOC(=O)/C(C)=C\C(C)=C\c1csc([C@H](Cc2ccccc2)NC(=O)C2CCCCC2)n1` [WY466h], 34.2 µM. As to `CCOC(=O)/C(C)=C\C(C)=C\c1csc([C@H](Cc2ccc(OCc3ccccc3)cc2)NC(=O)C(F)(F)F)n1` [WY558f], the IC50 is greater than 35 µM. As to `CCOC(=O)/C(C)=C\C(C)=C\c1csc([C@H](Cc2ccc(OCc3ccccc3)cc2)NC(=O)C2CCCC2)n1` [WY558s], the half-maximal inhibitory concentration (IC50) worked out at 12.7 µM.

As to `CCOC(=O)/C(C)=C\C(C)=C\c1csc([C@H](Cc2ccc(OCc3ccccc3)cc2)NC(=O)C(=O)C2CCCCC2)n1` [WY600], the concentration for half-maximal inhibition (IC50) is 3.44 µM.

Take `CC(=C\c1csc([C@H](Cc2ccc(OCc3ccccc3)cc2)NC(=O)C2CCCCC2)n1)/C=C(\C)C(=O)O` [WY544-2]: the IC50 was found to be 11.3 µM.

As to `CCOC(=O)/C(C)=C\C(C)=C/c1csc([C@H](Cc2ccc(OCc3ccccc3)cc2)NC(=O)C2CCCCC2)n1` [WY572-4], the half-inhibitory concentration (IC50) was 7.9 µM. Regarding `C/C(=C/C(C)=C/c1csc([C@H](Cc2ccc(OCc3ccccc3)cc2)NC(=O)C2CCCCC2)n1)C(=O)O` [WY544a], the IC50 stood at 4.4 µM.
